57 compounds from patent US9388147B2 (Receptos, Inc., priority 2009, dated 2016) can be followed below.

In this experiment the target is S1P1/EDG1 (Homo sapiens, UniProt P21453). As to the kind of experiment: S1P1 CRE-bla CHOK1 reporter assay, inhibition of Forskolin induced cAMP. It is filed as cell-based. The settings on record: agonist activity range, S1P1 CRE-bla CHOK1, 2 μM Forskolin; read-out: S1P1 ACTIVITY
Sequence of S1P1/EDG1 (P21453 whole entry): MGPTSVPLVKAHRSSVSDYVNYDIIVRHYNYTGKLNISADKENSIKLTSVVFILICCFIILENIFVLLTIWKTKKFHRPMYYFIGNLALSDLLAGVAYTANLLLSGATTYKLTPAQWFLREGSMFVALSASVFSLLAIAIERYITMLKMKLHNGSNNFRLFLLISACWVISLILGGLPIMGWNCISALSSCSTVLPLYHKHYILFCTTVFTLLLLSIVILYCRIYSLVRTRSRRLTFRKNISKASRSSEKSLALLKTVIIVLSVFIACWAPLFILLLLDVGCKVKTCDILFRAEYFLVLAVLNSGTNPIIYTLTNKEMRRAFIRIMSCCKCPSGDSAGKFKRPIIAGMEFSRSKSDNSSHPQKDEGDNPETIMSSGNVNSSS
Put shortly: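 Read-out is a FRET β-lactamase substrate (2 h, room temperature) after 4 h, 37 °C compound treatment under 2 μM Forskolin in stable S1P1-transfected CRE-bla CHO-K1 cells. Ten-point curves; non-linear regression gives EC50 for inhibition of Forskolin-stimulated cAMP.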
For orientation: Reporter assays use an easily measured gene product as a stand-in for the process of interest.
On to `CC(C)Oc1ccc(-c2nc(-c3cccc4c3CC[C@H]4NS(=O)(=O)CC(=O)N(C)C)no2)cc1C#N` [Compound 194, (R)-2-(N-(4-(5-(3-cyano-4-isopropoxyphenyl)-1,2,4-oxadiazol-3-yl)-2,3-dihydro-1H-inden-1-yl)sulfamoyl)-N,N-dimethylacetamide], for which the EC50 was under 0.05 nM.
The value for `CC(C)Oc1ccc(-c2nc(-c3cccc4c3CC[C@@H]4NS(=O)(=O)CC(=O)N(C)C)no2)cc1C#N` [Compound 195, (S)-2 (N (4-(5-(3 cyano-4-isopropoxyphenyl)-1,2,4-oxadiazol-3-yl)-2,3-dihydro-1H-inden-1-yl)sulfamoyl)-N,N-dimethylacetamide] was 0.05 to 0.5 nM; that for `CC(C)Oc1ccc(-c2nc(-c3cccc4c3CC[C@@H]4NS(=O)(=O)CC(N)=O)no2)cc1C#N` [Compound 196] was under 0.05 nM.
As to `CC(C)Oc1ccc(-c2nc(-c3cccc4c3CC[C@H]4NS(=O)(=O)CC(N)=O)no2)cc1C#N` [Compound 197], the EC50 is under 0.05 nM.
The value for `CNC(=O)CS(=O)(=O)N[C@H]1CCc2c(-c3noc(-c4ccc(OC(C)C)c(C#N)c4)n3)cccc21` [Compound 198] was 0.05 to 0.5 nM; that for `CNC(=O)CS(=O)(=O)N[C@@H]1CCc2c(-c3noc(-c4ccc(OC(C)C)c(C#N)c4)n3)cccc21` [Compound 199] was under 0.05 nM; that for `CC(C)Oc1ccc(-c2nc(-c3cccc4c3CC[C@@H]4NS(=O)(=O)CC(=O)N3CCC3)no2)cc1C#N` [Compound 200] was under 0.05 nM.
Take `CC(C)Oc1ccc(-c2nc(-c3cccc4c3CC[C@H]4NS(=O)(=O)CC(=O)N3CCC3)no2)cc1C#N` [Compound 201]: the EC50 was under 0.05 nM.
For the compound `CC(C)Oc1ccc(-c2nc(-c3cccc4c3CC[C@H]4N3CC(C(=O)O)C3)no2)cc1C#N` [Compound 202, (R)-1-(4-(5-(3-cyano-4-isopropoxyphenyl)-1,2,4-oxadiazol-3-yl)-2,3-dihydro-1H-inden-1-yl)azetidine-3-carboxylic acid], the EC50 is under 0.05 nM.
Consider `CC(C)Oc1ccc(-c2nc(-c3cccc4c3CC[C@@H]4N3CC(C(=O)O)C3)no2)cc1C#N` [Compound 203], for which the EC50 fell in the range of 0.05 to 0.5 nM.
For the compound `CC(C)Oc1ccc(-c2nc(-c3cccc4c3CC[C@H]4N3CC(C(=O)N(C)C)C3)no2)cc1C#N` [Compound 204], the EC50 lay within 0.05 to 0.5 nM.
As for `CC(C)Oc1ccc(-c2nc(-c3cccc4c3CC[C@@H]4N3CC(C(=O)N(C)C)C3)no2)cc1C#N` [Compound 205], the EC50 was 0.05 to 0.5 nM.
`CNC(=O)C1CN([C@H]2CCc3c(-c4noc(-c5ccc(OC(C)C)c(C#N)c5)n4)cccc32)C1` [Compound 206]: the EC50 fell in the range of 0.05 to 0.5 nM.
The value for `CC(C)Oc1ccc(-c2nc(-c3cccc4c3CC[C@@H]4N3CC(C(=O)N4CCC4)C3)no2)cc1C#N` [Compound 207] was 0.05 to 0.5 nM; that for `CC(C)Oc1ccc(-c2nc(-c3cccc4c3CC[C@@H]4N(C)CC(=O)O)no2)cc1C#N` [Compound 208] was 0.05 to 0.5 nM.
For the compound `CC(C)Oc1ccc(-c2nc(-c3cccc4c3CC[C@@H]4N(C)CCO)no2)cc1C#N` [Compound 209], the EC50 was 0.05 to 0.5 nM.
Turning to `CC(C)Oc1ccc(-c2nc(-c3cccc4c3CC[C@@H]4N(C)C)no2)cc1C#N` [Compound 210], the EC50 was 0.5 to 5 nM.
Take `CC(C)Oc1ccc(-c2nc(-c3cccc4c3CC[C@H]4NC(=O)N3CCOCC3)no2)cc1C#N` [Compound 211]: the EC50 was 0.05 to 0.5 nM.
As to `CC(C)Oc1ccc(-c2nc(-c3cccc4c3CC[C@@H]4NC(=O)N3CCOCC3)no2)cc1C#N` [Compound 212], the EC50 is 0.05 to 0.5 nM.
Turning to `CC(C)Oc1ccc(-c2nc(-c3cccc4c3CC[C@H]4NC(=O)N3CCNCC3)no2)cc1C#N` [Compound 213], the EC50 is 0.5 to 5 nM.
As for `CC(C)Oc1ccc(-c2nc(-c3cccc4c3CC[C@@H]4NC(=O)N3CCNCC3)no2)cc1C#N` [Compound 214], the EC50 fell in the range of 0.05 to 0.5 nM.
The result for `CC(C)Oc1ccc(-c2nc(-c3cccc4c3CC[C@H]4NC(=O)N3CCC[C@H](O)C3)no2)cc1C#N` [Compound 215] reads 0.5 to 5 nM.
As for `CC(C)Oc1ccc(-c2nc(-c3cccc4c3CC[C@@H]4NC(=O)N3CCC[C@H](O)C3)no2)cc1C#N` [Compound 216], the EC50 is 0.05 to 0.5 nM.
As to `CC(C)Oc1ccc(-c2nc(-c3cccc4c3CC[C@H]4NC(=O)N3CCC(CO)CC3)no2)cc1C#N` [Compound 217], the EC50 was 0.5 to 5 nM.
For the compound `CC(C)Oc1ccc(-c2nc(-c3cccc4c3CC[C@@H]4NC(=O)N3CCC(CO)CC3)no2)cc1C#N` [Compound 218], the EC50 was in the range of 0.05 to 0.5 nM.
As for `CC(C)Oc1ccc(-c2nc(-c3cccc4c3CC[C@H]4NC(=O)N3CCC[C@@H](O)C3)no2)cc1C#N` [Compound 219], the EC50 fell in the range of 0.5 to 5 nM.
Consider `CC(C)Oc1ccc(-c2nc(-c3cccc4c3CC[C@@H]4NC(=O)N3CCC[C@@H](O)C3)no2)cc1C#N` [Compound 220], for which the EC50 fell in the range of 0.05 to 0.5 nM.
Turning to `CC(C)Oc1ccc(-c2nc(-c3cccc4c3CC[C@H]4NC(=O)N3CC[C@@H](N)C3)no2)cc1C#N` [Compound 221], the EC50 fell in the range of 0.05 to 0.5 nM.
As for `CC(C)Oc1ccc(-c2nc(-c3cccc4c3CC[C@H]4NC(=O)N3CC[C@H](N)C3)no2)cc1C#N` [Compound 222], the EC50 was 0.5 to 5 nM.
For `CC(C)Oc1ccc(-c2nc(-c3cccc4c3CC[C@@H]4NC(=O)N3CC[C@@H](N)C3)no2)cc1C#N` [Compound 223], the EC50 lay within 0.5 to 5 nM.
As to `CC(C)Oc1ccc(-c2nc(-c3cccc4c3CC[C@@H]4NC(=O)N3CC[C@H](N)C3)no2)cc1C#N` [Compound 224], the EC50 fell in the range of 0.5 to 5 nM.
As for `COC(=O)CC1CCN(C(=O)N[C@@H]2CCc3c(-c4noc(-c5ccc(OC(C)C)c(C#N)c5)n4)cccc32)CC1` [Compound 225], the EC50 was 0.5 to 5 nM.
As to `COC(=O)CC1CCN(C(=O)N[C@H]2CCc3c(-c4noc(-c5ccc(OC(C)C)c(C#N)c5)n4)cccc32)CC1` [Compound 226], the EC50 lay within 0.05 to 0.5 nM.
Regarding `CC(C)Oc1ccc(-c2nc(-c3cccc4c3CC[C@H]4NC(=O)OCCO)no2)cc1C#N` [Compound 227], the EC50 fell in the range of 0.05 to 0.5 nM.
The result for `CC(C)Oc1ccc(-c2nc(-c3cccc4c3CC[C@H]4NC(=O)N3CCC(CC(=O)O)CC3)no2)cc1C#N` [Compound 228] reads 0.5 to 5 nM.
Regarding `CC(C)Oc1ccc(-c2nc(-c3cccc4c3CC[C@@H]4NC(=O)N3CCC(CC(=O)O)CC3)no2)cc1C#N` [Compound 229], the EC50 lay in the range of 0.05 to 0.5 nM.
The value for `CC(C)Oc1ccc(-c2nc(-c3cccc4c3CC[C@H]4NC(=O)N3CC[C@@H](O)C3)no2)cc1C#N` [Compound 230] was 0.05 to 0.5 nM.
As for `CC(C)Oc1ccc(-c2nc(-c3cccc4c3CC[C@H]4NC(=O)N3CC[C@H](O)C3)no2)cc1C#N` [Compound 231], the EC50 lay within 0.05 to 0.5 nM.
Regarding `CC(C)Oc1ccc(-c2nc(-c3cccc4c3CC[C@@H]4NC(=O)N3CC[C@@H](O)C3)no2)cc1C#N` [Compound 232], the EC50 was 0.05 to 0.5 nM.
Regarding `CC(C)Oc1ccc(-c2nc(-c3cccc4c3CC[C@@H]4NC(=O)N3CC[C@H](O)C3)no2)cc1C#N` [Compound 233], the EC50 is 0.05 to 0.5 nM.
`COC(=O)C1CCN(C(=O)N[C@@H]2CCc3c(-c4noc(-c5ccc(OC(C)C)c(C#N)c5)n4)cccc32)CC1` [Compound 236]: the EC50 fell in the range of 0.05 to 0.5 nM.
As to `COC(=O)C1CCN(C(=O)N[C@H]2CCc3c(-c4noc(-c5ccc(OC(C)C)c(C#N)c5)n4)cccc32)CC1` [Compound 237], the EC50 lay in the range of 0.05 to 0.5 nM.
Turning to `CC(C)Oc1ccc(-c2nc(-c3cccc4c3CC[C@H]4NC(=O)N3CCC(C(=O)O)CC3)no2)cc1C#N` [Compound 238], the EC50 was 0.05 to 0.5 nM.
The value for `CC(C)Oc1ccc(-c2nc(-c3cccc4c3CC[C@@H]4NC(=O)N3CCC(C(=O)O)CC3)no2)cc1C#N` [Compound 239] was 0.05 to 0.5 nM; that for `CC(C)Oc1ccc(-c2nc(-c3cccc4c3CC[C@H]4NC(=O)N3CCC(O)CC3)no2)cc1C#N` [Compound 240] was 0.5 to 5 nM.
The value for `CC(C)Oc1ccc(-c2nc(-c3cccc4c3CC[C@@H]4NC(=O)N3CCC(O)CC3)no2)cc1C#N` [Compound 241] was 0.05 to 0.5 nM; that for `CC(C)Oc1ccc(-c2nc(-c3cccc4c3CC[C@H]4NC(=O)N3CC[C@@H](N(C)C)C3)no2)cc1C#N` [Compound 242] was 0.5 to 5 nM; that for `CC(C)Oc1ccc(-c2nc(-c3cccc4c3CC[C@H]4NC(=O)N3CC[C@H](N(C)C)C3)no2)cc1C#N` [Compound 243] was 0.5 to 5 nM.
Regarding `CC(C)Oc1ccc(-c2nc(-c3cccc4c3CC[C@@H]4NC(=O)N3CC[C@@H](N(C)C)C3)no2)cc1C#N` [Compound 244], the EC50 was 0.5 to 5 nM.
Regarding `CC(C)Oc1ccc(-c2nc(-c3cccc4c3CC[C@@H]4NC(=O)N3CC[C@H](N(C)C)C3)no2)cc1C#N` [Compound 245], the EC50 lay within 0.5 to 5 nM.
On to `CC(C)Oc1ccc(-c2nc(-c3cccc4c3CC[C@H]4NC(=O)N3CCC(N(C)C)CC3)no2)cc1C#N` [Compound 246], for which the EC50 is over 5 nM.
The result for `CC(C)Oc1ccc(-c2nc(-c3cccc4c3CC[C@@H]4NC(=O)N3CCC(N(C)C)CC3)no2)cc1C#N` [Compound 247] reads 0.5 to 5 nM; that for `CC(C)Oc1ccc(-c2nc(-c3cccc4c3CC[C@H]4NS(N)(=O)=O)no2)cc1C#N` [Compound 248, (R)-N-(4-(5-(3 cyano-4-isopropoxyphenyl)-1,2,4-oxadiazol-3-yl)-2,3-dihydro-1H-inden-1-yl)sulfamide], under 0.05 nM.
For `CC(C)Oc1ccc(-c2nc(-c3cccc4c3CC[C@@H]4NS(N)(=O)=O)no2)cc1C#N` [Compound 249], the EC50 was under 0.05 nM.
Take `CC(C)Oc1ccc(-c2nc(-c3cccc4c3CC[C@@H]4NC(=N)N)no2)cc1C#N` [Compound 250]: the EC50 lay within 0.05 to 0.5 nM.
Turning to `CC(C)Oc1ccc(-c2nc(-c3cccc4c3CC[C@H]4N[C@H](C)c3ccccc3)no2)cc1C#N` [Compound 251], the EC50 was over 5 nM.
The result for `CC(C)Oc1ccc(-c2nc(-c3cccc4c3CC[C@H]4N)no2)cc1S(C)(=O)=O` [Compound 252] reads 0.5 to 5 nM.
